Measured values reported in US12396995B2, “Substituted 4-aminoisoindoline-1,3-dione compounds and second active agents for combined use” (Celgene Corporation, priority 2019, dated 2025).

How the values were obtained:
[1] = test system: panel of DLBCL cell lines; assay: CellTiter-Glo proliferation, Compound 1 with BET inhibitor Compound B; type: cell-based; details: Combinations of Compound B and Compound 1; 40 DLBCL cell lines; 5 days
Protocol: A panel of DLBCL cell lines in the following table were treated with single-agent Compound 1, single agent Compound B (a BET inhibitor), along with the combinations of Compound 1 and Compound B, at a concentration range to investigate the antiproliferative activities.
Experimental procedures: CellTiter-Glo (CTG), a luminescent dye that measures adenosine-5′-triphosphate (ATP), was used to quantify the cell proliferation across a panel of 40 unique DLBCL cell lines. Single agents and combinations were pre-spotted into 384-well plates (diluted in final dimethyl sulfoxide [DMSO] concentration of 0.1% for a maximal volume of 50 μL). […]
For each DLBCL cell line, 50 μL of cell suspension at their respective seeding densities of 0.025 to 0.2×10^6 cells per mL were added to 384-well plates containing the compounds. The effect of the single agents and combinations on the proliferation/viability of cells was assessed after 5 days of incubation. Twenty-five microliters of CTG per well was then dispensed to the cell suspension, and ATP released by viable cells was measured after a 30-minute incubation as relative luminescence units (RLU) using an EnVision plate reader (PerkinElmer, Covina, CA). […]

[2] = test system: DB DLBCL xenograft tumors; assay: DB (DLBCL) xenograft model, Compound 1 alone and with tazemetostat; type: in vivo, female SCID mice; details: for tumor volume reduction: 5 D on/2 D off
Protocol: Anti-tumor activity of Compound 1 alone and in combination with tazemetostat was studied in DB (DLBCL) xenograft model. Compound 1 (3, 10 or 30 mg/kg) was administered once daily for 5 consecutive days followed by 2 days off (5 D on/2 D off) and tazemetostat (200 mg/kg) was administered twice daily (BID).
Methods: Xenograft study was conducted with female SCID mice bearing DB DLBCL xenograft tumors. Female SCID mice were inoculated subcutaneously with DB cells in the flank region above the right hind leg. Following inoculation of animals, the tumors were allowed to grow to approximately 200 mm^3 prior to randomization. On day 33 following tumor cell inoculation, the mice bearing DB tumors ranging between 150 and 250 mm^3 were pooled together and randomized into various treatment groups. Compound 1 was formulated in 0.5% Methyl Cellulose, 0.25% Tween 80 and 50 mM Citrate pH 3 in water. Tazemetostat was formulated in CMC-Tween. Compound 1 (3, 10 or 30 mg/kg) was orally administered with three cycles of once daily for 5 consecutive days followed by 2 days off starting from day 33 after tumor cell inoculation. Tazemetostat (200 mg/kg) was orally administered twice day (BID) for three weeks. In combination group the animals received Compound 1 (3, 10 or 30 mg/kg, 5 D on/2 D off) and tazemetostat (200 mg/kg, BID) simultaneously for three weeks starting from day 33 after tumor cell inoculation. Tumors were measured twice a week using calipers and tumor volumes were calculated using the formula of W^2×L/2. Statistical analysis was performed using a one-way or 2-way analysis of variance (ANOVA). Synergy calculations were performed using fractional product method.

[3] = test system: WSU-DLCL2 DLBCL xenograft tumors; assay: WSU-DLCL2 (DLBCL) xenograft model, Compound 1 alone and with 5-azacytidine; type: in vivo, female SCID mice
Protocol: Anti-tumor activity of Compound 1 alone and in combination with 5-azacytidine was studies in WSU-DLCL2 (DLBCL) xenograft model. Compound 1 (1 mg/kg) was administered once daily for 5 consecutive days followed by 2 days off (5 D on/2 D off) and 5-azacytidine (1 mg/kg) was administered once daily (QD). Compound 1 (1 mg/kg, 5 D on/2 D off) and 5-azacytidine (1 mg/kg, QD) inhibited WSU-DLCL2 DLBCL tumor growth.
Methods: Xenograft study was conducted with female SCID mice bearing WSU-DLCL2 DLBCL xenograft tumors. Female SCID mice were inoculated subcutaneously with WSU-DLCL2 cells in the flank region above the right hind leg. Following inoculation of animals, the tumors were allowed to grow to approximately 200 mm^3 prior to randomization. On day 14 following tumor cell inoculation, the mice bearing WSU-DLCL2 tumors ranging between 150 and 250 mm^3 were pooled together and randomized into various treatment groups. Compound 1 was formulated in 0.5% Methyl Cellulose, 0.25% Tween 80 and 50 mM Citrate pH 3 in water. 5-Azacytidine was formulated in 0.9% saline. Compound 1 (1 mg/kg) was orally administered with three cycles of once daily for 5 consecutive days followed by 2 days off starting from day 14 after tumor cell inoculation. […] Tumors were measured twice a week using calipers and tumor volumes were calculated using the formula of W^2×L/2. […]

O=C1CC[C@H](N2C(=O)c3cccc(NCc4ccc(CN5CC(N6CCOCC6)C5)cc4F)c3C2=O)C(=O)N1 [Compound 1, (S)-2-(2,6-dioxopiperidin-3-yl)-4-((2-fluoro-4-((3-morpholinoazetidin-1-yl)methyl)benzyl)amino)isoindoline-1,3-dione] was tested, and the “combination effect on proliferation (Bliss independence and HSA models)” value [1] was “synergy and additivity in the majority of DLBCL cell lines”, the “tumor volume reduction compared with vehicle control” value ([2]; Compound 1 3 mg/kg in combination with tazemetostat 200 mg/kg) was 99.1% and the “tumor volume reduction compared with vehicle control” value ([2]; Compound 1 10 mg/kg in combination with tazemetostat 200 mg/kg) was 100%. For the same compound, the “tumor volume reduction compared with vehicle control” value ([2]; Compound 1 30 mg/kg in combination with tazemetostat 200 mg/kg) was 100%, the “combination antitumor activity (fractional product method)” value ([2]; Compound 1 at 3, 10 or 30 mg/kg and tazemetostat at 200 mg/kg) was “synergistic” and the tumor volume reduction ([2]; single agent Compound 1 3 mg/kg oral) was 16.9%. The tumor volume reduction ([2]; single agent Compound 1 10 mg/kg oral) was 41.11%, the tumor volume reduction ([2]; single agent Compound 1 30 mg/kg oral) was 48.9% and the animals tumor free ([2]; tazemetostat in combination with 3 mg/kg Compound 1) was 90%. The animals tumor free ([2]; tazemetostat in combination with 10 mg/kg Compound 1) was 100%, the animals tumor free ([2]; tazemetostat in combination with 30 mg/kg Compound 1) was 100% and the “combination antitumor activity (fractional product method)” value ([3]; Compound 1 1 mg/kg and 5-azacytidine 1 mg/kg) was “synergistic”. The “tumor volume reduction compared to vehicle control” value ([3]; Compound 1 1 mg/kg in combination with 5-azacytidine 1 mg/kg) was 74%.
